Data taken from PMC11702666, “The anti-COVID-19 drug Paxlovid crosses biological barriers of the placenta and brain in rats” (npj Viruses, 2024).
Entries after “also recorded” stand apart in the source; their conditions may differ. Like-named read-outs stand apart in the source and are kept apart here.

Tests used:
in vivo [1] = settings: male, Sprague-Dawley, rat, iv, 15 mg/kg; for AUC(0-t): AUClast; for AUC(0-t) / clearance / Cmax / MRT / Tmax / half-life: male rats; for clearance: CL (clearance); for MRT: MRT (mean residence time); for half-life: t1/2 (elimination half-life)
zebrafish embryo = zebrafish embryo model; therapeutic doses in humans; cited from earlier work
SARS-CoV-2 = tested on: SARS-CoV-2; parameters: method as in PMID 34726479; settings: 90% inhibition of viral replication, cited from earlier work
in vivo [2] = settings: female, Sprague-Dawley, rat, iv, 15 mg/kg; for AUC(0-t): AUClast; for AUC(0-t) / clearance / Cmax / MRT / Tmax / half-life: nonpregnant female rats; for clearance: CL (clearance); for MRT: MRT (mean residence time); for half-life: t1/2 (elimination half-life)
[3] = for nirmatrelvir concentration in dialysate sample: 60 min after nirmatrelvir 15 mg/kg i.v., representative sample
[4] = PBPK model LeiCNS-PK3.0; recommended dosing regimen; cited from earlier work
in vivo [5] = settings: female, Sprague-Dawley, rat, iv, 15 mg/kg, pregnant rats; for AUC(0-t): AUClast; for Kp: AUCtissue/AUCblood (maternal blood-to-tissue transfer ratio); for clearance: CL (clearance)
[6] = blood, nirmatrelvir 15 mg/kg i.v. alone
[7] = blood, nirmatrelvir 15 mg/kg i.v. plus ritonavir 7 mg/kg i.v.
[8] = brain, nirmatrelvir 15 mg/kg i.v. alone
[9] = brain, nirmatrelvir 15 mg/kg i.v. plus ritonavir 7 mg/kg i.v.
[10] = amniotic fluid, nirmatrelvir 15 mg/kg i.v. alone
[11] = amniotic fluid, nirmatrelvir 15 mg/kg i.v. plus ritonavir 7 mg/kg i.v.
[12] = fetus, nirmatrelvir 15 mg/kg i.v. alone
[13] = fetus, nirmatrelvir 15 mg/kg i.v. plus ritonavir 7 mg/kg i.v.
[14] = maternal blood, nirmatrelvir 15 mg/kg i.v. alone
[15] = maternal blood, nirmatrelvir 15 mg/kg i.v. plus ritonavir 7 mg/kg i.v.
[16] = placenta, nirmatrelvir 15 mg/kg i.v. alone
[17] = placenta, nirmatrelvir 15 mg/kg i.v. plus ritonavir 7 mg/kg i.v.

With `CC(C)(C)[C@H](NC(=O)C(F)(F)F)C(=O)N1C[C@H]2[C@@H]([C@H]1C(=O)N[C@H](C#N)C[C@@H]1CCNC1=O)C2(C)C` [Nirmatrelvir] the “increase of Cmax in blood, combined vs alone” value (nonpregnant female rats, blood, coadministration with ritonavir vs nirmatrelvir alone) was “threefold”, the “protein unbound nirmatrelvir concentrations in blood and brain versus EC90” value (nonpregnant rats) was “all higher than the EC90” and the Kp (in vivo [1]) was 0.26 ± 0.03. For the same compound, the AUC(0-t) (in vivo [1]; [6]) was 12900 ng·h/mL, the AUC(0-t) (in vivo [1]; [7]) was 80500 ng·h/mL and the AUC(0-t) (in vivo [1]; [8]) was 3540 ng·h/mL. The AUC(0-t) (in vivo [1]; [9]) was 5190 ng·h/mL, the clearance (in vivo [1]; [6]) was 21 ± 2.8 mL/min/kg and the clearance (in vivo [1]; [7]) was 3.16 ± 0.18 mL/min/kg. For the same compound, the Cmax (in vivo [1]; [6]) was 26500 ± 4450 ng/mL, the Cmax (in vivo [1]; [7]) was 94500 ± 27600 ng/mL and the Cmax (in vivo [1]; [8]) was 2520 ± 320 ng/mL. The Cmax (in vivo [1]; [9]) was 2020 ± 350 ng/mL, the MRT (in vivo [1]; [6]) was 0.717 h and the MRT (in vivo [1]; [7]) was 2.32 h. For the same compound, the MRT (in vivo [1]; [8]) was 1.53 h, the MRT (in vivo [1]; [9]) was 3.4 h and the Tmax (in vivo [1]; [8]) was 0.333 h. The Tmax (in vivo [1]; [9]) was 0.45 h, the half-life (in vivo [1]; [7]) was 0.833 ± 0.15 h and the half-life (in vivo [1]; [8]) was 1.1 ± 0.117 h. The half-life (in vivo [1]; [9]) was 2.05 ± 0.367 h, the “survival rates and morphological defects” value (zebrafish embryo) was “does not affect survival rates or induce morphological defects; also recorded: did not affect survival rates or induce morphological defects” and the “unbound EC90” value (SARS-CoV-2) was 0.0905 µg/mL. For the same compound, the EC90 (SARS-CoV-2; unbound) was 0.181 µM, the Kp (in vivo [2]) was 0.21 ± 0.04 and the AUC(0-t) (in vivo [2]; [6]) was 16800 ng·h/mL. The AUC(0-t) (in vivo [2]; [7]) was 69400 ng·h/mL, the AUC(0-t) (in vivo [2]; [8]) was 3120 ng·h/mL and the AUC(0-t) (in vivo [2]; [9]) was 5280 ng·h/mL. For the same compound, the clearance (in vivo [2]; [6]) was 16 ± 2.02 mL/min/kg, the clearance (in vivo [2]; [7]) was 3.73 ± 0.29 mL/min/kg and the Cmax (in vivo [2]; [6]) was 35600 ± 2110 ng/mL. It also gave a Cmax (in vivo [2]; [7]) of 107000 ± 7400 ng/mL, a Cmax (in vivo [2]; [8]) of 2420 ± 460 ng/mL and a Cmax (in vivo [2]; [9]) of 2330 ± 390 ng/mL. For the same compound, the MRT (in vivo [2]; [6]) was 0.667 h, the MRT (in vivo [2]; [7]) was 1.32 h and the MRT (in vivo [2]; [8]) was 1.55 h. For the same compound, the MRT (in vivo [2]; [9]) was 2.2 h, the Tmax (in vivo [2]; [8]) was 0.333 h and the Tmax (in vivo [2]; [9]) was 0.6 h. For the same compound, the half-life (in vivo [2]; [6]) was 0.333 ± 0.0333 h, the half-life (in vivo [2]; [7]) was 0.417 ± 0.0167 h and the half-life (in vivo [2]; [8]) was 1.08 ± 0.117 h. For the same compound, the half-life (in vivo [2]; [9]) was 1.07 ± 0.2 h, the “nirmatrelvir concentration in dialysate sample” value ([3]; amniotic fluid dialysate) was 27.61 ng/mL and the “nirmatrelvir concentration in dialysate sample” value ([3]; fetus dialysate) was 37 ng/mL. The “nirmatrelvir concentration in dialysate sample” value ([3]; maternal blood dialysate) was 344.8 ng/mL, the “nirmatrelvir concentration in dialysate sample” value ([3]; placenta dialysate) was 95.13 ng/mL and the “nirmatrelvir level in conceptus (fetus, placenta, amniotic fluid) versus EC90” value ([3]; pregnant rats, regular dose of Paxlovid) was “higher than the EC90”. The “predicted brain penetration / effective concentrations against SARS-CoV-2” value [4] was “achieves effective concentrations against SARS-CoV-2 in human brain cells”, the AUC(0-t) (in vivo [5]; [10]) was 4740 ng·h/mL and the AUC(0-t) (in vivo [5]; [11]) was 17200 ng·h/mL. The AUC(0-t) (in vivo [5]; [12]) was 2830 ng·h/mL, the AUC(0-t) (in vivo [5]; [13]) was 5720 ng·h/mL and the AUC(0-t) (in vivo [5]; [14]) was 52200 ng·h/mL. It also gave an AUC(0-t) (in vivo [5]; [15]) of 120000 ng·h/mL, an AUC(0-t) (in vivo [5]; [16]) of 8010 ng·h/mL and an AUC(0-t) (in vivo [5]; [17]) of 18000 ng·h/mL. The Kp (in vivo [5]; [10]) was 0.12 ± 0.03, the Kp (in vivo [5]; [12]) was 0.06 ± 0.01 and the Kp (in vivo [5]; [16]) was 0.15 ± 0.03. It also gave a clearance (in vivo [5]; [14]) of 5 ± 0.4 mL/min/kg, a clearance (in vivo [5]; [15]) of 2.14 ± 0.15 mL/min/kg and a Cmax (in vivo [5]; [10]) of 1840 ± 490 ng/mL. It also gave a Cmax (in vivo [5]; [11]) of 6590 ± 1840 ng/mL, a Cmax (in vivo [5]; [12]) of 960 ± 190 ng/mL and a Cmax (in vivo [5]; [13]) of 1720 ± 600 ng/mL. It also gave a Cmax (in vivo [5]; [14]) of 156000 ± 24000 ng/mL, a Cmax (in vivo [5]; [15]) of 171000 ± 52300 ng/mL and a Cmax (in vivo [5]; [16]) of 3560 ± 320 ng/mL. The Cmax (in vivo [5]; [17]) was 4400 ± 820 ng/mL and the MRT (in vivo [5]; MRT (mean residence time), amniotic fluid, nirmatrelvir 15 mg/kg i.v. alone) was 4.83 h.
